Data as given in patent US8669291B2, “Phenyl substituted cycloalkylamines as monoamine reuptake inhibitors” (Sunovion Pharmaceuticals Inc., priority 2007, dated 2014).

How the values were obtained:
DA Transporter (DAT) = target: T1, DA Transporter (DAT) (Mus musculus, UniProt Q61327); experiment: ex vivo [3H] WIN 35428 binding to DAT sites in mouse brain; settings: mice, 60 minutes after treatment
T1 construct: Striatal membranes (200 μL; equivalent to 2 mg wet weight of tissue/tube); from tissue; host or cells: striatum of C57BL/6 mice
Method: (§1) Receptor occupancy of central noradrenaline (NA), 5-HT and dopamine (DA) transporter sites following peripheral administration of compounds was determined using [^3H] nisoxetine, [^3H] citalopram and [^3H] WIN 35428 binding, respectively. Liquid scintillation counting was used to quantify the radioactivity.
(§2) C57BL/6 mice (25-30 g) were dosed orally with either vehicle or compound at 4 dose levels. Mice were sacrificed 60 minutes after treatment. Whole brains were removed and cortex and striata dissected out before being frozen on dry ice. The brain tissue was stored at −20° C. until the day of the assay. The cortex from each hemisphere was frozen separately. One was used to determine occupancy of NA transporter sites and the other occupancy of 5-HT transporter sites. Striatum was used to determine occupancy of DA transporter sites.
(§3) Frontal cortex from each hemisphere or striata was homogenized individually in ice-cold assay buffer using a tight fitting glass/Teflon homogenizer and used immediately in the binding assay.
Striatal membranes (200 μL; equivalent to 2 mg wet weight of tissue/tube) were incubated with 25 μL of [^3H] WIN 35428 at a single concentration of 24 nM and either 25 μL of buffer (total binding) or 25 μL of GBR12935 (1 μM; non-specific binding) for 2 h at 4° C. For each animal, two tubes were used for the determination of total binding and two tubes for the determination of non-specific binding.
(§4) Membrane bound radioactivity was recovered by filtration under vacuum through Skatron 11731 filters, presoaked in 0.5% PEI, using a Skatron cell harvester. Filters were rapidly washed with ice-cold phosphate buffer and radioactivity (dpm) was determined by liquid scintillation counting (1 mL Packard MV Gold scintillator).
(§5) A value for specific binding (dpm) was generated by the subtraction of mean non-specific binding (dpm) from mean total binding (dpm) for each animal. Data are presented as mean specific binding (dpm) and as a percentage of the vehicle-treated control taken as 100%.

[1] = target: T2, Norepinephrine Transporter (NET) (Mus musculus, UniProt O55192); experiment: ex vivo [3H] nisoxetine binding to NET sites in mouse brain; settings: mice, 60 minutes after treatment
T2 construct: Cortical membranes (400 μL; equivalent to 6.0 mg wet weight of tissue/tube); from tissue; host or cells: frontal cortex of C57BL/6 mice
Method: as §1, §2, §3
Cortical membranes (400 μL; equivalent to 6.0 mg wet weight of tissue/tube) were incubated with 50 μL of [^3H] nisoxetine at a single concentration of 0.6 nM and either 50 μL of buffer (total binding) or 50 μL of mazindol (1 μM; non-specific binding) for 4 h at 4° C. For each animal, three tubes were used for the determination of total binding and three tubes were used for the determination of non-specific binding.
as §4, §5

5-HT Transporter (SERT) = target: T3, 5-HT Transporter (SERT) (Mus musculus, UniProt Q60857); experiment: ex vivo [3H] citalopram binding to SERT sites in mouse brain; settings: mice, 60 minutes after treatment
T3 construct: Cortical membranes (400 μL; equivalent to 1.25 mg wet weight of tissue/tube); from tissue; host or cells: frontal cortex of C57BL/6 mice
Method: as §1, §2, §3
Cortical membranes (400 μL; equivalent to 1.25 mg wet weight of tissue/tube) were incubated with 50 μl of [^3H] citalopram at a single concentration of 1.3 nM and either 50 μl of buffer (total binding) or 50 μl of paroxetine (0.5 μM; non-specific binding) for 1 h at 27° C. For each animal, three tubes were used for the determination of total binding and three tubes were used for the determination of non-specific binding.
as §4, §5

rats [2] = experiment: Rat Forced Swim Test; type: in vivo; settings: PO
Source text: The method, which detects antidepressant activity, followed that described by Porsolt et al (Eur. J. Pharmacol., 47: 379-391 (1978)) and modified by Lucki et al. (Psychopharm, 121: 66-72 (1995)). Rats forced to swim in a situation from which they cannot escape rapidly become immobile. Antidepressants decrease the duration of immobility. […] Selective NE reuptake inhibitors decrease immobility by increasing climbing behaviors whereas selective 5-HT reuptake inhibitors decrease immobility by increasing swimming behaviors.
Rats were individually placed in a cylinder (Height=40 cm; Diameter=20 cm) containing 22 cm water (25° C.) for 15 minutes on the first day of the experiment (Session 1) and were then put back in the water 24 hours later for a 5 minute test (Session 2). The sessions were videotaped and duration of immobility as well as swimming and climbing behaviors during the 5 minute test were measured. Twelve rats were tested in each group. The test was performed blind. Compounds were typically evaluated at 3 doses (1-30 mg/kg), administered orally 2 times: 24 hours and 30-60 minutes before the test (Session 2), and compared with a vehicle control group. Desipramine (20 mg/kg i.p.), administered under the same experimental conditions, was used as the positive reference substance.
Data were analyzed by one way analysis of variance (ANOVA) followed by post-hoc comparisons where appropriate. An effect will be considered significant if p<0.05. Data are represented as the mean and standard error to the mean (s.e.m.).

rats [3] = experiment: Rat Locomotor Activity; type: in vivo; settings: PO
Method: In order to ensure effects of the compounds on immobility time were not related to a general stimulant effect on baseline motor activity, locomotor activity was assessed using photocell monitored cages (Med-Associates Inc.). Each test chamber was equipped with infrared photocell beams to measure movement of the animals. Horizontal and vertical activity were measured.
Rats or mice were pretreated with vehicle or test compounds and placed back in home cage, following which they were individually placed in locomotor cages and activity was monitored in 1-5 minute intervals for intervals up to 60 min.
Data were analyzed by one way analysis of variance (ANOVA) followed by post-hoc comparisons where appropriate. An effect was considered significant if p<0.05. Data are represented as the mean and standard error to the mean (s.e.m).

T2 sequence (O55192 whole entry): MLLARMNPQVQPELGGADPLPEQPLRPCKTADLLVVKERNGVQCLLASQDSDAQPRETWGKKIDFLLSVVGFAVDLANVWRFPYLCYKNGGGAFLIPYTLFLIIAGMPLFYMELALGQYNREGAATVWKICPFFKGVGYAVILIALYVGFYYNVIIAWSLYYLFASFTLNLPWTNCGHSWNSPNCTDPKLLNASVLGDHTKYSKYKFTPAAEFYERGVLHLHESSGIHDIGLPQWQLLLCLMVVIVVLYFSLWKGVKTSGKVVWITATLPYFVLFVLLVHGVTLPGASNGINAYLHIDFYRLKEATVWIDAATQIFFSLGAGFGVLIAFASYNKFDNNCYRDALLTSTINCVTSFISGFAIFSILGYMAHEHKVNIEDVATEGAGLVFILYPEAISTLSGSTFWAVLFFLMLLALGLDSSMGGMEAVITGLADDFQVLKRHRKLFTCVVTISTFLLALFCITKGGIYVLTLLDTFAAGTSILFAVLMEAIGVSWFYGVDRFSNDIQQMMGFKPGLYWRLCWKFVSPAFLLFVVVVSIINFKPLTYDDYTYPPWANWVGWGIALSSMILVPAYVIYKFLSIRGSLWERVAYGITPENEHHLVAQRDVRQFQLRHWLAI
T1 sequence (Q61327 whole entry): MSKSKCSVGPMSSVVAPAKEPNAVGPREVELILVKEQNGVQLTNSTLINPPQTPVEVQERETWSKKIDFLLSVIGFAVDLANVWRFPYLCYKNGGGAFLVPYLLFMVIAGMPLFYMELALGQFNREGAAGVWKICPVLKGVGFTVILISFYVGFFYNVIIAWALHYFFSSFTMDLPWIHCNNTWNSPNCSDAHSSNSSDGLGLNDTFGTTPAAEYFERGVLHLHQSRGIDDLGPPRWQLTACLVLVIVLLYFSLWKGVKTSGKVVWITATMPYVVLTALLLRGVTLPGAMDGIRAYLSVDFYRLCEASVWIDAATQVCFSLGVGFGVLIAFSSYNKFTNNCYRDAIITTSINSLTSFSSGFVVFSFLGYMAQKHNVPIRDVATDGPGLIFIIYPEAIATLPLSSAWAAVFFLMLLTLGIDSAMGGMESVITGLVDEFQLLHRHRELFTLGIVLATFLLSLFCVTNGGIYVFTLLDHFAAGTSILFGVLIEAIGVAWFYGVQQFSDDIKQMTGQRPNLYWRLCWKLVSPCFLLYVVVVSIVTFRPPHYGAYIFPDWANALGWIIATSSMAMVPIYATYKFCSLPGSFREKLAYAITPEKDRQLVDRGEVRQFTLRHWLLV
T3 sequence (Q60857 whole entry): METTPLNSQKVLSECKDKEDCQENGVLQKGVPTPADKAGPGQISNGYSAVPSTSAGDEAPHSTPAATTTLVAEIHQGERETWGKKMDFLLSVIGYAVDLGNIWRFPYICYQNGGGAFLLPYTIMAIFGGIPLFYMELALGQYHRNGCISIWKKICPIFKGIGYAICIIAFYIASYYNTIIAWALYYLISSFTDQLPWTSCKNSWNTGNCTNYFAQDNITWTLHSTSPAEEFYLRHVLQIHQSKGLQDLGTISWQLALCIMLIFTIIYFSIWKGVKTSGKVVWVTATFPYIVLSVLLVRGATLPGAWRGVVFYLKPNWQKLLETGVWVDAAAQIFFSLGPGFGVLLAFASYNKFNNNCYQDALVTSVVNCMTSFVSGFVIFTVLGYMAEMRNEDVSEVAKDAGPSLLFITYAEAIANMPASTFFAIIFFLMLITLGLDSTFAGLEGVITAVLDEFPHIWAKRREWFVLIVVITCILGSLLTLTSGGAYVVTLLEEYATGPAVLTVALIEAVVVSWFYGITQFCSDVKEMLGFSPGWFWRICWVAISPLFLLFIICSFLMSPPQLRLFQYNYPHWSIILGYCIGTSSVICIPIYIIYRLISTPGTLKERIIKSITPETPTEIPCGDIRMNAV

In the case of `CN(C)C[C@@H]1CCCC[C@@]1(O)c1ccc(Cl)c(Cl)c1` (single isomer, unassigned) [Compound 2, cis-1-(3,4-dichlorophenyl)-2-((dimethylamino)methyl)cyclohexanol], the “% Transporter Occupancy, DAT” value (DA Transporter (DAT); 1 mg/kg PO) is reported as 15%, the “% Transporter Occupancy, DAT” value (DA Transporter (DAT); 3 mg/kg PO) is reported as 50% and the “% Transporter Occupancy, DAT” value (DA Transporter (DAT); 10 mg/kg PO) is reported as 79%. The “% Transporter Occupancy, DAT” value (DA Transporter (DAT); 30 mg/kg PO) was 90%, the “% Transporter Occupancy, NET” value ([1]; 1 mg/kg PO) was 19% and the “% Transporter Occupancy, NET” value ([1]; 3 mg/kg PO) was 44%. The “% Transporter Occupancy, NET” value ([1]; 10 mg/kg PO) was 74%, the “% Transporter Occupancy, NET” value ([1]; 30 mg/kg PO) was 89% and the “% Transporter Occupancy, SERT” value (5-HT Transporter (SERT); 1 mg/kg PO) was 11%. For the same molecule, the “% Transporter Occupancy, SERT” value (5-HT Transporter (SERT); 3 mg/kg PO) was −1%, the “% Transporter Occupancy, SERT” value (5-HT Transporter (SERT); 10 mg/kg PO) was 6% and the “% Transporter Occupancy, SERT” value (5-HT Transporter (SERT); 30 mg/kg PO) was 5%. For the same molecule, the “Rat Forced Swim (Means ± S.E.M.) Climbing” value (rats [2]; 1 mg/kg) was “## (11-20 (##))”, the “Rat Forced Swim (Means ± S.E.M.) Immobility” value (rats [2]; 1 mg/kg) was “+++ (>41 (+++))” and the “Rat Forced Swim (Means ± S.E.M.) Swimming” value (rats [2]; 1 mg/kg) was “* (1-5 (*))”. For the same molecule, the “Rat Forced Swim (Means ± S.E.M.) Climbing” value (rats [2]; 3 mg/kg) was “# (1-10 (#))”, the “Rat Forced Swim (Means ± S.E.M.) Immobility” value (rats [2]; 3 mg/kg) was “+++ (>41 (+++))” and the “Rat Forced Swim (Means ± S.E.M.) Swimming” value (rats [2]; 3 mg/kg) was “* (1-5 (*))”. For the same molecule, the “Rat Forced Swim (Means ± S.E.M.) Climbing” value (rats [2]; 10 mg/kg) was “### (>21 (###))”, the “Rat Forced Swim (Means ± S.E.M.) Immobility” value (rats [2]; 10 mg/kg) was “+ (1-20 (+))” and the “Rat Forced Swim (Means ± S.E.M.) Swimming” value (rats [2]; 10 mg/kg) was “** (6-9 (**))”. The “Rat Locomotor Activity Total Distance Traveled ± S.E.M.” value (rats [3]; 1 mg/kg) was “° (100-2500 (°))”, the “Rat Locomotor Activity Total Distance Traveled ± S.E.M.” value (rats [3]; 3 mg/kg) was “° (100-2500 (°))” and the “Rat Locomotor Activity Total Distance Traveled ± S.E.M.” value (rats [3]; 10 mg/kg) was “°°° (>5001 (°°°))”.
